Data reported in PubChem BioAssay AID449750 (Broad Institute, 2010).
Several values for one entry are separate records, joined by “and”; a condition that tells them apart may be missing. Equal values may be shown once. Activity calls are given as the source filed them. No rule for the calls is given here.

Test: non-covalent RecA intein splicing inhibitors, dose response, biochemical, cell-free, fluorescence, secondary screen (AID 449750)

| Compound | AC50 |
| --- | --- |
| CC1=NN(c2ccc(Cl)c(C(=O)O)c2)C(=O)C1 | 3.21 µM |
| CCc1nc(N2CCN(C(=O)CCl)CC2)c2c3c(sc2n1)CC(C)CC3 (centres undefined) | 2 µM |
| O=S(=O)(c1ccc(Cl)c(Cl)c1)c1snnc1-c1ccccc1 | 9.72 µM |
| O=C(N/N=C\c1ccc(-c2ccccc2[N+](=O)[O-])o1)C1COc2ccccc2O1 (centres undefined) | 8.06 µM |
| O=C(O)c1ccc(NC2=C(Cl)C(=O)c3ccccc3C2=O)cc1 | 3.91 µM |
| Cc1ccc(-n2nc(C)c3c2OC(N)=C(C#N)C3c2ccoc2)cc1 (centres undefined) | 6.18 µM |
| COc1ccc(C(=O)/C=C/Sc2nc3ccccc3o2)cc1 | 38.6 µM |
| CC1=NN(c2ccc(C(=O)O)cc2)C(=O)/C1=C\c1ccc(OC(=O)c2cccs2)cc1 | 2.25 µM |
| COc1ccccc1N(C(=O)CCl)c1cn(C(C)=O)c2ccccc12 | 2.36 µM |
| CCOC(=O)CSc1nc2sc3c(c2c(=O)n1C1CCCCC1)CCN(C)C3 | > 38 µM (inactive) |
| COC(=O)c1cc(NC(=O)Nc2ccccc2OC)cc(C(=O)OC)c1 | > 38 µM (inactive) |
| CCOC(=O)C1=C(C)NC2(O)c3ccccc3C(=O)C12O (centres undefined) | 7.53 µM |
| COc1ccc(/C=C/C(=O)c2ccc(O)cc2)cc1COc1ccc(F)cc1 | > 38 µM (inactive) |
| Cn1c(=O)[nH]c(=O)c2c1nc([N+](=O)[O-])n2Cc1ccccc1 | > 38 µM (inactive) |
| O=C(CCl)N1N=C(c2ccco2)CC1c1cccs1 (centres undefined) | 6.09 µM |
| O=C1c2ccccc2-c2c1nc1c([n+]2[O-])CCCC1 | 31.3 µM |
| COc1cc(C(=O)c2nccc3cc(OC)c(OC)cc23)c([N+](=O)[O-])cc1OC | 18.3 µM |
| O=C1C(Cl)=C(N2CCCCC2)C(=O)C(Cl)=C1c1cnc(N2CCCCC2)s1 | > 38 µM (inactive) |
| O=C(Cc1cc(=O)[nH][nH]1)N/N=C/c1c(Cl)cccc1Cl | 16 µM and 23.9 µM |
| FC(F)(F)c1ccc2c(c1)N(CCCN1CCN(CCCl)CC1)c1ccccc1S2 | 2.54 µM |
| COc1ccc(Br)cc1[C@H]1[C@@H]2C=CCC[C@@]2(C)C(=O)N1Cc1ccccc1 | > 38 µM (inactive) |
| O=C(CCl)N(c1ccccc1)c1c[nH]c2ccccc12 | 1.46 µM |
| O=[N+]([O-])c1ccc(O)c2ncccc12 | 6.6 µM |
| CCOc1cc(C2C(C#N)=C(N)Oc3n[nH]c(-c4ccccc4)c32)ccc1O (centres undefined) | 20.6 µM |
| Cc1ccccc1NC(=O)C(=Cc1ccc(C(=O)O)cc1)C(=O)Nc1ccccc1C | > 38 µM (inactive) |
| c1ccc2[nH]c3cc4ncnc4cc3nc2c1 | 37.5 µM |
| Cc1cccc(CS(=O)(=O)c2ncc(Cl)c(C(=O)Nc3nnc(C(C)C)s3)n2)c1 | 2.13 µM |

| Compound | AC50 |
| --- | --- |
| CN1CCN(C(c2ccc(Br)cc2)c2cc(Cl)c3cccnc3c2O)CC1 (centres undefined) | 5.33 µM |
| C/C(CC(=O)Nc1cc(C)ccn1)=N\NC(=O)C(=O)NC(C)C | > 38 µM (inactive) |
| O=C(NC1CCCC1)C(c1ccc(F)cc1)N(Cc1ccccc1Cl)C(=O)CCl (centres undefined) | 0.802 µM |
| CN1c2ccc(C=O)c3c(C=O)ccc(c23)N(C)C1(C)C | > 38 µM (inactive) |
| CCN(CC)C(=O)c1ccc2c(c1[N+](=O)[O-])C(=O)c1ccccc1C2=O | > 38 µM (inactive) |
| CCOC(=O)Cc1[nH]nc2c1C(c1cccc(OC)c1OC)C(C#N)=C(N)O2 (centres undefined) | 11.5 µM |
| CCCSc1nnc(Sc2nnnn2-c2ccccc2)s1 | 14.2 µM |
| O=C(Nc1ccc(Cl)c(Cl)c1)Nc1ccccc1NS(=O)(=O)c1cccs1 | 30.3 µM |
| O=C(CNC1=NCCC1)c1ccc(Cl)cc1 | > 38 µM (inactive) |
| Cc1cc(-c2ccccc2)nc2cc(C(=O)N(Cc3ccccc3)Cc3ccccc3)nn12 | 18.8 µM |
| Cc1cnnn1-c1ccc(C(=O)CCl)cc1 | > 38 µM (inactive) |
| COc1cc(C2C(C#N)=C(N)Oc3n[nH]c(C)c32)ccc1OC(=O)c1ccccc1 (centres undefined) | > 38 µM (inactive) |
| Cc1cc(=O)n(C2CCS(=O)(=O)C2)[nH]1 (centres undefined) | 3.63 µM |
| CC(=O)OCCN(C)c1cc(SC(C)C)c2nonc2c1[N+](=O)[O-] | > 38 µM (inactive) |
| Cc1ccc2nc(/C(C#N)=C\c3ccc([N+](=O)[O-])o3)[nH]c2c1 | > 38 µM (inactive) |
| Brc1ccc(Cn2c(-c3ccc(Br)o3)nc3ccccc32)o1 | 23.2 µM |
| O=C1CCCC2=C1C1(O)C(=O)c3ccccc3C1(O)O2 (centres undefined) | 7.79 µM |
| COc1cc(C2C(C#N)=C(N)Oc3c2c(-c2ccccc2)nn3-c2ccccc2)cc(OC)c1OC (centres undefined) | 29.9 µM |
| CCOC(=O)/C(C#N)=C\c1ccc(O)c(OC)c1 | > 38 µM (inactive) |
| O=[N+]([O-])C(/C=C(\Cl)[N+](=O)[O-])=C1N(Cc2ccc(Cl)nc2)CCN1Cc1ccc(Cl)nc1 | > 38 µM (inactive) |
| COc1ccc(NC(=O)/C(Cl)=C(/Cl)S(=O)(=O)Cc2ccc(C)cc2)cn1 | 35.2 µM |
| Oc1ccc(C=Nc2ccc3ncccc3c2)c(O)c1 | 3.75 µM |
| O=C(NC1(O)C(=O)c2ccccc2C1=O)c1c(Cl)cccc1Cl | 12.5 µM |
| COc1ccc(C(C(=O)NC2CCCCC2)N(C(=O)CCl)c2cccc(Cl)c2)cc1 (centres undefined) | 0.577 µM |
| CCOc1ccc2c(c1)C(NC(C)=O)C(=O)N2CCN1CCOCC1 (centres undefined) | 34.2 µM |
| Clc1ccc(CSC(Cn2ccnc2)c2ccc(Cl)cc2Cl)cc1 (centres undefined) | 8.47 µM |
| Cc1nc2ccccc2c2c1C(=O)NC2=O | > 38 µM (inactive) |
